Results: PMC8003416, “Modulation of Human Phenylalanine Hydroxylase by 3-Hydroxyquinolin-2(1H)-One Derivatives” (Biomolecules, 2021)
Where “and” joins values, the source holds several entries; their conditions need not be identical. Equal entries are not always repeated.

Assays:
[1] = molecular target: T1, human phenylalanine hydroxylase (hPAH) (Homo sapiens, UniProt P00439); parameters: method as in PMID 12379147, PMID 15060071; details: ref [24],[25]; read-out: KD of L-Phe, previously reported SPR values; cited from earlier work
T1 construct: Recombinant full-length wild-type (WT) hPAH was expressed in E. coli Top10 cells in fusion with a hexa-histidyl peptide; made in house; host or cells: E. coli Top10
T1 sequence (P00439 1-452): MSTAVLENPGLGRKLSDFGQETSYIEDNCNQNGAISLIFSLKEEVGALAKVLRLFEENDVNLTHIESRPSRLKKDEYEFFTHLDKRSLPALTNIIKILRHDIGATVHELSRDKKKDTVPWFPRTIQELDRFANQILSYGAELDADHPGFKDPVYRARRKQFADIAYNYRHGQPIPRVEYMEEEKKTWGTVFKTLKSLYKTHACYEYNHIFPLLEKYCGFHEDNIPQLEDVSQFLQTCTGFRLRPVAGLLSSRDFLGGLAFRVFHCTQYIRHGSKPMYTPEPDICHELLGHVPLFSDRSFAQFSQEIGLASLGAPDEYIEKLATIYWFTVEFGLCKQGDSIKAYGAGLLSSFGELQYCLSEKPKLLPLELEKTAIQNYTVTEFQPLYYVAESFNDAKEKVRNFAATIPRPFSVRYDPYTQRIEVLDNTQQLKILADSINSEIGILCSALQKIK

[2] = molecular target: T2, hPAH-RD^1–120 (N-terminal regulatory domain) (Homo sapiens, UniProt P00439); test: Light scattering assay of hPAH-RD1–120 self-association
T2 construct: consisting solely of the N-terminal regulatory domain (amino acids 1–120); made in house; host or cells: E. coli TB1
T2 sequence (P00439 1-120): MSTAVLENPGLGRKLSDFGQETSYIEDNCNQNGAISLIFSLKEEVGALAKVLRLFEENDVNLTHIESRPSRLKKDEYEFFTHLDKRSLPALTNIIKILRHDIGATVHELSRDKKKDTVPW
Description: Self-assembly of the dimeric forms of hPAH-RD^1–120 was followed in real-time at 25 °C upon cleavage of MBP-FXa-hPAH-RD^1–120 with FXa (New England Biolabs) to release the MBP fusion partner. Assays (n = 3) were performed in the absence or presence of tested compounds as described in [17]. Briefly, FXa (at a final ratio 1:150 (w/w) relative to the fusion protein) was added to the reaction mixture containing the MBP-FXa-hPAH-RD^1–120 fusion protein (0.74 mg/mL), 20 mM Na-HEPES, 100 mM NaCl, pH 7.0 and tested 3HQ (100 μM). The increase in absorbance at 350 nm was followed for 180 min on a FLUOstar Omega (BMG Labtech) microplate reader. A shaking step was introduced before each measurement. Appropriate control assays were performed and included: (i) a positive control consisting of MBP-FXa-hPAH-RD^1–120 in the presence of FXa, 1% DMSO and in the absence of compounds; and (ii) a negative control consisting of MBP-FXa-hPAH-RD^1–120 in the absence of FXa and compounds. For all the assays, aliquots of the aggregation reaction were collected at the end of the reaction (180 min) and analyzed by SDS-PAGE to confirm the extent of MBP cleavage by FXa. In addition, the effect of tested compounds on FXa activity was monitored using the synthetic FXa substrate Boc–Ile–Glu-Gly–Arg–AMC (t-(Butyloxycarbonyl)-isoleucylglutamylglycylarginyl-7-amido-4-methylcoumarin; from Bachem). Assays (n = 3) were performed in a 96-well plate, in a final volume of 200 μL containing 20 mM Na-HEPES, 100 mM NaCl, pH 7.0, 5 μg/mL of FXa, 50 μM of Boc–Ile-Glu–Gly–Arg–AMC and 100 μM of 3HQ derivatives. Fluorescence was measured in real-time (λexc 360 nm and λem 460 nm) during 30 min, at 25 °C. Controls were performed using substrate alone with 1% DMSO (negative control) and FXa with no compounds and 1% DMSO (positive control).

## N[C@@H](Cc1ccccc1)C(=O)O [L-Phe, L-phenylalanine, reference compound]
[1]
  Kd: 97 µM and 136 µM
[2]; 100 μM, 180 min, 25 °C
  effect on hPAH-RD^1–120 aggregation: only slightly prevented hPAH-RD^1–120 aggregation
[2]; 1 mM L-Phe
  effect on hPAH-RD^1–120 aggregation: completely blocked it

## COC(=O)CNC(=O)c1c(O)c(=O)[nH]c2ccc(OC(F)(F)F)cc12 [Compound 11]
[2]; 100 μM, 180 min, 25 °C
  effect on hPAH-RD^1–120 aggregation: no direct evidence of a direct binding to hPAH-RD^1–120 was obtained
